Measurements as given in US20090048117A1, “MODULATION OF IMMUNE SYSTEM FUNCTION BY MODULATION OF POLYPEPTIDE ARGININE METHYLTRANSFERASES” (President and Fellows of Harvard College, priority 2003, published 2009).

Assays:
NFAT4 = test: Nuclear translocation of NFAT4 by immunofluorescence in HepG2 cells; assay type: cell-based; parameters: key: Subcellular localization of NFAT4 in the cytoplasm is indicated by a (−); nuclear translocation of NFAT4 is indicated by (^+); settings: 1 μM ionomycin
Method: The effect of NIP45 on the nuclear translocation of NFAT4 also was investigated. HepG2 cells were transfected with either NFAT4 or NFAT4 plus NIP45 and stimulated the following day with 1 μM ionomycin for 0, 2, 4, 8 or 15 minutes. For one sample, the cells were stimulated for 15 minutes with ionomycin and then washed with fresh media and allowed to rest for an additional 15 minutes (indicated as “15 min.^+15 min. rest” in Table 1). This analysis is designed to examine the function of NIP45 as a nuclear retention factor. […] All samples were then fixed and analyzed by immunofluorescence for translocation of NFAT4 as described above. Subcellular localization of NFAT4 in the cytoplasm is indicated by a (−) and nuclear translocation of NFAT4 is indicated by (^+).

NFAT reporter element = test: NFAT consensus site luciferase reporter assay in Jurkat cells; assay type: cell-based, human; settings: PRMT1 with NFATc2
Method: FIGS. 13A-13D depict the regulation of the IFNγ and IL-4 promoters by PRMT1. (A) Jurkat cells were transfected with the 9.2 kb IFNγ luciferase reporter 5 μg) and expression vectors for T-bet (5 μg) and PRMT1 (10 μg). Cells were unstimulated or stimulated with PMA/ionomycin for 6 hrs prior to luciferase assays. (B) Jurkat cells were transfected with the IL-4 luciferase reporter (2.5 μg) and expression vectors for NFATc2 (2.5 μg), c-Maf (2.5 μg), and PRMT1 (10 μg). Cells were treated as in (A). (C) Jurkat cells were transfected with the IL-4 luciferase reporter (2.5 μg) and expression vectors for JunB (2.5 μg), c-Maf (2.5 μg), and PRMT1 (10 μg). Cells were treated as in (A). (D) Jurkat cells were transfected with an luciferase reporter driven by NFAT consensus sites and expression vectors for NFATc2 (2.5 μg) and PRMT1 (10 μg). Cells were treated as in (A). (Luciferase units were normalized to TK-renilla luciferase activity. Results are representative to at least three independent experiments.)
The IL-4 promoter contains several composite NFAT/AP-1 sites. Whether PRMT1 coactivation is mediated through NFAT or AP-1 factors was investigated as both NFAT and JunB are involved in the regulation of IL-4 promoter activity (Li, B., et al. (1999) EMBO J 18:420-432). […]

IL-4 promoter = test: IL-4 luciferase reporter assay in Jurkat cells; assay type: cell-based, human; settings: PRMT1 with NFATc2 and c-Maf, PMA/ionomycin stimulation
Method: FIGS. 11A-11C depict the effects of MTA on T helper cytokine production. (A) T helper cells were isolated from the lymph nodes of DO11.10 TCR transgenic mice and grown under Th1 or Th2 conditions for 7 days. Th1 and Th2 cells were treated with PMA/ionomycin for 3 hrs or pretreated with 1 mM MTA for 60 min prior to PMA/ionomycin stimulation. RNA was isolated with analyzed by RNase protection analysis for transcript level of indicated cytokines. L32 and GAPDH included in the multitemplate probe set served as an internal control. (B) Cells were grown as in (A) either pretreated with 1 mM MTA or left untreated and intracellular cytokine analysis was performed after stimulation with PMA/ionomycin for 2 hrs and an additional 2 hrs with […] monensin. (C) MTA inhibits IL-4 promoter activity. Jurkat cells were transfected with IL-4 reporter vector (2.5 μg) and expression vectors for c-Maf (2.5 μg), NFATc2 (2.5 μg), and PRMT1 (10 μg) along with a TK-renilla luciferase vector (5 ng) as an internal control. Transfectants were left unstimulated or pretreated with 1 mM MTA before a 6 hr PMA/ionomycin stimulation. Luciferase values were calculated relative to TK renilla luciferase internal controls and are expressed relative to unstimulated reporter activity. Similar results were obtained in at least three independent experiments. […]

Compound | Nuclear Translocation of NFAT4 (NFAT4; 0 min.) | Nuclear Translocation of NFAT4 (NFAT4; 8 min.) | Nuclear Translocation of NFAT4 (NFAT4; 15 min.) | Nuclear Translocation of NFAT4 (NFAT4; 15 min. + 15 min. rest in fresh media) | augmentation of NFATc2 transactivation of an NFAT reporter element (NFAT reporter element) | IL-4 promoter activity over NFATc2/c-Maf only (IL-4 promoter)
C[C@H](CCC(=O)O)C[C@H](C)C[C@H](C)C(=O)/C=C(\O)[C@H](C)C[C@H](C)C/C=C/[C@@H](C)[C@@H](O)[C@@H](C)[C@@H](O)C[C@@H]1CC[C@@](C)([C@H]2CC[C@@](C)([C@@H](C)O)O2)O1 [Ionomycin, ionomycin] | − | + | + | − |  | 
PRMT1: type I protein arginine methyltransferase (SEQ ID NO:10), expressed from a transfected expression vector |  |  |  |  | approximately 10 fold | 5 fold
